Source: ChEMBL document CHEMBL4834487, “Model studies towards prodrugs of the glutamine antagonist 6-diazo-5-oxo-l-norleucine (DON) containing a diazo precursor” (Bioorg Med Chem Lett, 2021)

How the values were obtained:
[1] = Metabolic stability in pig liver homogenate assessed as parent compound remaining measured after 30 mins; format: ADME, tissue-based, Sus scrofa; conditions: read-out: Stabilty
[2] = Stability of compound in potassium phosphate buffer at pH 7.4 assessed as parent compound remaining measured after 30 mins; format: physicochemical; conditions: read-out: Stabilty
[3] = Stability of compound in sodium acetate buffer at pH 4 assessed as parent compound remaining measured after 60 mins; format: physicochemical; conditions: read-out: Stabilty
[4] = Drug metabolism in pig brain homogenate assessed as 6-Diazo-5-oxo-L-norleucin formation by ion chromatogram analysis; format: ADME, tissue-based, Sus scrofa
[5] = Drug metabolism in pig brain homogenate assessed as N-acetyl-6-Diazo-5-oxo-L-norleucin formation by ion chromatogram analysis; format: ADME, tissue-based, Sus scrofa
[6] = Metabolic stability in pig brain homogenate assessed as parent compound remaining measured after 30 mins; format: ADME, tissue-based, Sus scrofa; conditions: read-out: Stabilty
[7] = Stability of the compound in DMSO measured for 24 hrs; format: physicochemical
[8] = Stability of the compound in DMSO measured within 12 hrs; format: physicochemical

SMILES	remaining at 0.5 h [1]	remaining at 0.5 h [2]	remaining at 1 h [3]	Drug metabolism [4]	Drug metabolism [5]	remaining at 0.5 h [6]	Stabilty [7]	Stabilty [8]
CC(=O)N[C@@H](CCC(=O)Cn1nnc2c(C(N)=O)ncn2c1=O)C(=O)O	< 5%	< 5%	> 95%	Metabolite_Notdetected	Metabolite_Detected	< 5%	Stable	–
CC(=O)NC(CCC(=O)CN(N=O)C(=O)OCc1ccccc1)C(=O)O (stereo not drawn)	–	–	–	–	–	–	–	Unstable
